Our source for the Kd values is patent publication US20260325685A1, “Radiopharmaceutical Compositions Targeting Carbonic Anhydrase IX and Uses Thereof” (RayzeBio, Inc., priority 2023, published 2026).

SMILES strings stand for the structures. Read-outs that look alike come from different tables or passages of the source.

In one experiment the target is T1, human CA-XII (Homo sapiens, UniProt O43570).
T1 construct: purchased Creative BioMart CA12-261H
Put plainly: Surface Plasmon Resonance (SPR) binding kinetics to recombinant human CA-XII (Biacore 8K, single-cycle kinetics, 1:1 binding model). The essentials:
(§1)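 At 25° C, compound was injected at nine concentrations from 100 to 0.39 nM (PBS-P+ pH 7.4, 1% DMSO) over streptavidin-captured recombinant human CA-IX or CA-XII (1200-1800 RU). Association 120 s, dissociation 1200 s, single-cycle format; association and dissociation constants from 1:1 kinetic fits.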
(In general: In SPR one partner is held on a chip, and binding of the other changes the refractive index at the surface.)

The next experiment concerns the target T2, human CA-IX (Homo sapiens, UniProt Q16790).
T2 construct: purchased Acro CA9-H82E3
Put plainly: Surface Plasmon Resonance (SPR) binding kinetics to recombinant human CA-IX (Biacore 8K, single-cycle kinetics, 1:1 binding model). The essentials: as §1

[1] abbreviates: Chelated Metal: Lu-175, 25° C., pH 7.4, read-out: CAXII KD.
[2] abbreviates: Chelated Metal: Lu-175; SPR, 25° C., pH 7.4; read-out: CAIX KD.
Where [3] appears, read: read-out: CAXII KD, Chelated Metal: Lu-175, 25° C., pH 7.4.
[4] abbreviates: read-out: CAIX KD; Chelated Metal: Lu-175; SPR, 25° C., pH 7.4.
[5] abbreviates: Chelated Metal: Cu (cold), 25° C., pH 7.4, read-out: CAXII KD.
The mark [6] stands for this setting: Chelated Metal: Cu (cold); SPR, 25° C., pH 7.4; read-out: CAIX KD.

T1 sequence (O43570 25-354): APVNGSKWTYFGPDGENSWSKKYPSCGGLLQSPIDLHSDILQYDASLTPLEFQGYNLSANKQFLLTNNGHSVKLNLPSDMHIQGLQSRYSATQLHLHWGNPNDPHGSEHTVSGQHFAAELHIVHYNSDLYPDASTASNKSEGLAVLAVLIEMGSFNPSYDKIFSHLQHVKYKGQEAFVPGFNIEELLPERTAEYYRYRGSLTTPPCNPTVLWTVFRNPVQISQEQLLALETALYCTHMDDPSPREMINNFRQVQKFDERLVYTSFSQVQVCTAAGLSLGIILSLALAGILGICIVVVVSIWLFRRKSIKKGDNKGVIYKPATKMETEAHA

What is called Kd is the equilibrium constant for the complex coming apart. With `CC(CCCC(=O)N1CCOC[C@H]1C(=O)N[C@@H](CC(=O)NC1(C(=O)NCCn2cc(C34CC(C(=O)Nc5nnc(S(N)(=O)=O)s5)(C3)C4)nn2)CCN(C(=O)CN2CCN(CC(=O)O)CCN(CC(=O)O)CCN(CC(=O)O)CC2)CC1)C(=O)O)(c1ccc(O)cc1)c1ccc(O)cc1.[Lu+3]` [Compound 117.3], the Kd was greater than 10 nM on human CA-XII (setting [1]) and less than 1 nM on human CA-IX (setting [2]).
With `CC(CCCC(=O)N1CCC(C(N)=O)(C(=O)NCC(=O)NC2(C(=O)NCCn3cc(C45CC(c6cn7nc(S(N)(=O)=O)sc7n6)(C4)C5)nn3)CCN(C(=O)CN3CCN(CC(=O)O)CCN(CC(=O)O)CCN(CC(=O)O)CC3)CC2)CC1)(c1ccc(O)cc1)c1ccc(O)cc1.[Lu+3]` [Compound 117.5], the Kd at human CA-XII (setting [1]) was 2.5 to 10 nM; at human CA-IX (setting [2]), less than 1 nM.
Regarding `CC(CCCC(=O)N1CCC(C(N)=O)(C(=O)NCC(=O)NC2(C(=O)NCCn3cc(C45CCC(C(=O)Nc6nnc(S(N)(=O)=O)s6)(CC4)CC5)nn3)CCN(C(=O)CN3CCN(CC(=O)O)CCN(CC(=O)O)CCN(CC(=O)O)CC3)CC2)CC1)(c1ccc(O)cc1)c1ccc(O)cc1.[Lu+3]` [Compound 117.6], the Kd was 1 to 2.5 nM at human CA-XII (setting [1]) and less than 1 nM at human CA-IX (setting [2]).
As to `Cc1cc(C(=O)Nc2nnc(S(N)(=O)=O)s2)ccc1-c1cn(CCNC(=O)C2(NC(=O)CNC(=O)C3(C(N)=O)CCN(C(=O)CCCC(C)(c4ccc(O)cc4)c4ccc(O)cc4)CC3)CCN(C(=O)CN3CCN(CC(=O)O)CCN(CC(=O)O)CCN(CC(=O)O)CC3)CC2)nn1.[Lu+3]` [Compound 117.7], the Kd at human CA-XII (setting [1]) was greater than 10 nM; at human CA-IX (setting [2]), less than 1 nM.
For `CC(CCCC(=O)N1CCC(C(N)=O)(C(=O)NCC(=O)NC2(C(=O)NCCn3cc(COc4ccc5nc(S(N)(=O)=O)sc5c4)nn3)CCN(C(=O)CN3CCN(CC(=O)O)CCN(CC(=O)O)CCN(CC(=O)O)CC3)CC2)CC1)(c1ccc(O)cc1)c1ccc(O)cc1.[Lu+3]` [Compound 117.8], the results for the Kd at human CA-XII (setting [1]) and on human CA-IX (setting [2]) were greater than 10 nM and less than 1 nM, respectively.
For the molecule `CC(CCC(=O)N[C@@H](CC(=O)N[C@@H](CC(=O)NC1(C(=O)NCCn2cc(C34CC(C(=O)Nc5nnc(S(N)(=O)=O)s5)(C3)C4)nn2)CCN(C(=O)CN2CCN(CC(=O)O)CCN(CC(=O)O)CCN(CC(=O)O)CC2)CC1)C(=O)O)C(=O)O)(c1ccc(O)cc1)c1ccc(O)cc1.[Lu+3]` [Compound 117], the Kd on human CA-XII (setting [3]) is greater than 10 nM; at human CA-IX (setting [4]), 1 to 2.5 nM.
As for `NS(=O)(=O)c1nnc(CC(=O)C23CC(c4cn(CCNC(=O)[C@H]5COCCN5C(=O)CC[C@H](NC(=O)[C@H](CCCCNC(=O)CN5CCN(CC(=O)O)CCN(CC(=O)O)CCN(CC(=O)O)CC5)NC(=O)CCC5CCCCC5)C(=O)O)nn4)(C2)C3)s1.[Lu+3]` [Compound 118.1], the equilibrium dissociation constant (Kd) on human CA-XII (setting [1]) is greater than 10 nM; on human CA-IX (setting [2]), 1 to 2.5 nM.
In the case of `CC(CCC(=O)N1CCN(C(=O)CN2CCN(CC(=O)O)CCN(CC(=O)O)CCN(CC(=O)O)CC2)C[C@H]1C(=O)N[C@@H](CC(=O)N1CCOC[C@@H]1Cn1cc(C23CC(C(=O)Nc4nnc(S(N)(=O)=O)s4)(C2)C3)nn1)C(=O)O)(c1ccc(O)cc1)c1ccc(O)cc1.[Lu+3]` [Compound 118.2], the Kd was greater than 10 nM on human CA-XII (setting [1]) and 1 to 2.5 nM on human CA-IX (setting [2]).
`NS(=O)(=O)c1nnc(NC(=O)C23CC(c4cn(CCNC(=O)[C@H]5CNCCN5C(=O)[C@H](CCCCNC(=O)CN5CCN(CC(=O)O)CCN(CC(=O)O)CCN(CC(=O)O)CC5)NC(=O)CC[C@H](NC(=O)c5n[nH]c6ccccc56)C(=O)O)nn4)(C2)C3)s1.[Lu+3]` [Compound 118.3]: the dissociation constant Kd at human CA-XII (setting [1]) and on human CA-IX (setting [2]) was 2.5 to 10 nM in each case.
With `NS(=O)(=O)c1nnc(CC(=O)C23CC(c4cn(CCNC(=O)[C@H]5COCCN5C(=O)CC[C@H](NC(=O)[C@H](CCCCNC(=O)CN5CCN(CC(=O)O)CCN(CC(=O)O)CCN(CC(=O)O)CC5)NC(=O)c5n[nH]c6ccccc56)C(=O)O)nn4)(C2)C3)s1.[Lu+3]` [Compound 118.4], the Kd was greater than 10 nM on human CA-XII (setting [1]) and 1 to 2.5 nM on human CA-IX (setting [2]).
Regarding `NS(=O)(=O)c1nnc(NC(=O)C23CC(c4cn(CCNC(=O)[C@H]5CNCCN5C(=O)[C@H](CCCCNC(=O)CN5CCN(CC(=O)O)CCN(CC(=O)O)CCN(CC(=O)O)CC5)NC(=O)CC[C@H](NC(=O)CCC5CCCCC5)C(=O)O)nn4)(C2)C3)s1.[Lu+3]` [Compound 118], the Kd lay within 2.5 to 10 nM on human CA-XII (setting [3]) and 1 to 2.5 nM on human CA-IX (setting [4]).
`CC(CCC(=O)N[C@@H](CC(=O)N[C@@H](CC(=O)N1CCN(C(=O)CN2CCN(CC(=O)O)CCN(CC(=O)O)CCN(CC(=O)O)CC2)C[C@H]1C(=O)NCC(=O)N1CCC2(CC1)CC(C(=O)Nc1nnc(S(N)(=O)=O)s1)C2)C(=O)O)C(=O)O)(c1ccc(O)cc1)c1ccc(O)cc1.[Lu+3]` [Compound 119]: the figures for the Kd at human CA-XII (setting [3]) and on human CA-IX (setting [4]) were greater than 10 nM and 2.5 to 10 nM, respectively.
Regarding `CC(CCC(=O)N[C@@H](CC(=O)N[C@@H](CC(=O)N[C@@H](CCCCN1CCN(c2ccc(C(=O)Nc3nnc(S(N)(=O)=O)s3)cc2)CC1)C(=O)NCCOCCOCCNC(=O)CN1CCN(CC(=O)O)CCN(CC(=O)O)CCN(CC(=O)O)CC1)C(=O)O)C(=O)O)(c1ccc(O)cc1)c1ccc(O)cc1.[Lu+3]` [Compound 121.1], the results for the Kd on human CA-XII (setting [1]) and on human CA-IX (setting [2]) were greater than 10 nM and 1 to 2.5 nM, respectively.
Turning to `CC(CCC(=O)N[C@@H](CC(=O)N[C@@H](CC(=O)N[C@@H](CCCCN1CCN(c2ccc(C(=O)Nc3nnc(S(N)(=O)=O)s3)cc2)CC1)C(=O)NCCOCCOCCNC(=O)CN1CCN(CC(=O)O)CCN(CC(=O)O)CCN(CC(=O)O)CC1)C(=O)O)C(=O)O)(c1ccc(O)cc1)c1ccc(O)cc1.[Lu+3]` [Compound 121], the dissociation constant (Kd) on human CA-XII (setting [3]) is greater than 10 nM; on human CA-IX (setting [4]), less than 1 nM.
On to `CC(CCC(=O)N[C@@H](CC(=O)N[C@@H](CC(=O)N[C@@H](CCCCn1nnc(C(=O)O)c1C12CCC(C(=O)Nc3nnc(S(N)(=O)=O)s3)(CC1)CC2)C(=O)NCCOCCOCCNC(=O)CN1CCN(CC(=O)O)CCN(CC(=O)O)CCN(CC(=O)O)CC1)C(=O)O)C(=O)O)(c1ccc(O)cc1)c1ccc(O)cc1.[Lu+3]` [Compound 122], for which the Kd on human CA-XII (setting [3]) and on human CA-IX (setting [4]) was 1 to 2.5 nM each time.
Take `CC(CCC(=O)N[C@@H](CC(=O)N[C@@H](CC(=O)N1CCN(C(=O)NCCOCCNC(=O)CN2CCN(CC(=O)O)CCN(CC(=O)O)CCN(CC(=O)O)CC2)C[C@@H]1CCCCn1cc(CCCC(=O)Nc2nnc(S(N)(=O)=O)s2)nn1)C(=O)O)C(=O)O)(c1ccc(O)cc1)c1ccc(O)cc1.[Lu+3]` [Compound 123]: the Kd at human CA-XII (setting [3]) was 2.5 to 10 nM; on human CA-IX (setting [4]), 1 to 2.5 nM.
Regarding `CC(CCC(=O)N[C@@H](CC(=O)N[C@@H](CC(=O)N1CCN(C(=O)OCCOCCNC(=O)CN2CCN(CC(=O)O)CCN(CC(=O)O)CCN(CC(=O)O)CC2)C[C@@H]1CCCCn1cc(CCCC(=O)Nc2nnc(S(N)(=O)=O)s2)nn1)C(=O)O)C(=O)O)(c1ccc(O)cc1)c1ccc(O)cc1.[Lu+3]` [Compound 124], the Kd on human CA-XII (setting [3]) and on human CA-IX (setting [4]) was 2.5 to 10 nM each time.
For `CC(CCCC(=O)N1CCC(C(N)=O)(C(=O)NCC(=O)N2CCN(C(=O)CN3CCN(CC(=O)O)CCN(CC(=O)O)CC3)C[C@@H]2C(=O)NCCn2cc(C34CC(C(=O)Nc5nnc(S(N)(=O)=O)s5)(C3)C4)nn2)CC1)(c1ccc(O)cc1)c1ccc(O)cc1.[Cu+2]` [Compound 126.1], the dissociation constant Kd at human CA-XII (setting [5]) is greater than 10 nM; on human CA-IX (setting [6]) it was less than 1 nM.
Turning to `NS(=O)(=O)c1nnc(NC(=O)C23CC(c4cn(CCNC(=O)[C@@H]5CN(C(=O)CN6CCN(CC(=O)O)CCN(CC(=O)O)CC6)CCN5C(=O)C[C@H](NC(=O)C[C@H](NC(=O)c5ccc(C6CC6)cn5)C(=O)O)C(=O)O)nn4)(C2)C3)s1.[Cu+2]` [Compound 126.2], the figures for the Kd at human CA-XII (setting [5]) and at human CA-IX (setting [6]) were 2.5 to 10 nM and less than 1 nM, respectively.
As for `CC(CCCC(=O)N1CCOC[C@H]1C(=O)N[C@@H](CC(=O)N1CCN(C(=O)CN2CCN(CC(=O)O)CCN(CC(=O)O)CC2)C[C@@H]1C(=O)NCCn1cc(C23CC(C(=O)Nc4nnc(S(N)(=O)=O)s4)(C2)C3)nn1)C(=O)O)(c1ccc(O)cc1)c1ccc(O)cc1.[Cu+2]` [Compound 126.3], the dissociation constant (Kd) at human CA-XII (setting [5]) was greater than 10 nM; on human CA-IX (setting [6]), less than 1 nM.
The like results for `CC(CCC(=O)N[C@@H](CC(=O)N[C@@H](CC(=O)N1CCN(C(=O)CN2CCN(CC(=O)O)CCN(CC(=O)O)CC2)C[C@H]1C(=O)NCCn1cc(C23CC(C(=O)Nc4nnc(S(N)(=O)=O)s4)(C2)C3)nn1)C(=O)O)C(=O)O)(c1ccc(O)cc1)c1ccc(O)cc1.[Cu+2]` [Compound 126.4] were, in that order, greater than 10 nM and less than 1 nM.
As for `NS(=O)(=O)c1nnc(NC(=O)C23CC(c4cn(CCNC(=O)[C@@H]5CN(C(=O)CN6CCN(CC(=O)O)CCN(CC(=O)O)CC6)CCN5C(=O)C[C@H](NC(=O)C[C@H](NC(=O)CC5CC6(CCC6)C5)C(=O)O)C(=O)O)nn4)(C2)C3)s1.[Cu+2]` [Compound 126.5], the Kd on human CA-XII (setting [5]) is 1 to 2.5 nM; on human CA-IX (setting [6]), less than 1 nM.
Take `CC(CCCC(=O)N1CCC(C(N)=O)(C(=O)NCC(=O)N2CCN(C(=O)CN3CCN(CC(=O)O)CCN(CC(=O)O)CC3)C[C@H]2C(=O)NCCn2cc(C34CC(C(=O)Nc5nnc(S(N)(=O)=O)s5)(C3)C4)nn2)CC1)(c1ccc(O)cc1)c1ccc(O)cc1.[Cu+2]` [Compound 126]: the dissociation constant Kd at human CA-XII (setting [5]) was greater than 10 nM; at human CA-IX (setting [6]), less than 1 nM.
For `CC(CCCC(=O)N1CCC(C(N)=O)(C(=O)NCC(=O)N2CCN(C(=O)CC[C@H](C(=O)O)N3CCN(CC(=O)O)CCN(CC(=O)O)CCN(CC(=O)O)CC3)C[C@H]2C(=O)NCCn2cc(C34CC(C(=O)Nc5nnc(S(N)(=O)=O)s5)(C3)C4)nn2)CC1)(c1ccc(O)cc1)c1ccc(O)cc1.[Lu+3]` [Compound 127.1], the Kd was greater than 10 nM on human CA-XII (setting [1]) and less than 1 nM on human CA-IX (setting [2]).
